Holding throughout (assay type): in vivo
The subject of one assay is Helicoverpa armigera. Put plainly: Helicoverpa armigera, diet incorporation method. The settings on record: third instar larvae, 96 h after release, dead + moribund vs untreated control, read-out: percent mortality. How it is done:
(§1) The diet incorporation method was used, in which the required quantity of the test compound was weighed and dissolved in a tube containing solvent solution. The tube was put on a vortex at 2000 rpm for 90 min for proper mixing. Semi-synthetic diet was incorporated into this solution when the temperature was approximately 50° C. in the bioassay containers. Compound and diet were stirred thoroughly for proper mixing and allowed to cool for 30 min. The solidified diet was cut into equal pieces, and then each piece was transferred into one cell of a bio-assay tray. A single starved third instar larva was released into each of the cells of the bioassay trays and the tray was covered with a lid. The bio-assay trays were then kept under laboratory conditions at a temperature of 25° C. and a relative humidity of 70%. Observations on dead, moribund and alive larvae were recorded 96 h after the release of the larvae. Percent mortality was calculated by combining dead and moribund larvae and comparing the result to the one of the untreated control.

The next assay deals with Spodoptera litura. Description: Spodoptera litura, diet incorporation method. The settings on record: third instar larvae, 96 h after release, dead + moribund vs untreated control, read-out: percent mortality. On the procedure:
as §1, with “covered with the lid. The” for “covered with a lid. The”, “release of larvae. Percent” for “release of the larvae. Percent”

A further assay concerns Plutella xylostella. Description: Plutella xylostella, leaf dip method. The settings on record: foliar, cabbage leaf dip, second instar larvae, 72 h after release, dead + moribund vs untreated control, read-out: percent mortality. The method in brief:
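Cabbage leaves were dipped for 10 s in compound diluted with 0.01% Triton-X, shade dried and offered singly to second instar larvae. Trays were held at 25° C. and 70% relative humidity. Dead plus moribund larvae were scored at 72 h, and percent mortality was expressed relative to untreated control.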

One may read the mortality as the percentage killed. For `CCS(=O)(=O)c1cc(-c2ccn3nc(C(F)(F)F)cc3n2)cnc1-n1nccn1` [Compound 39, 5-(5-(ethylsulfonyl)-6-(2H-1,2,3-triazol-2-yl)pyridin-3-yl)-2-(trifluoromethyl)pyrazolo[1,5-a]pyrimidine], the mortality at 300 ppm in the assay on Helicoverpa armigera, with Spodoptera litura and in the assay with Plutella xylostella was at least 70% in each case.

For the compound `CCS(=O)(=O)c1ccc(-n2ncn(-c3ccc(Cl)cc3)c2=O)nc1-c1ccn2nc(C(F)(F)F)cc2n1` [Compound 7, 4-(4-chlorophenyl)-2-(5-(ethylsulfonyl)-6-(2-(trifluoromethyl)pyrazolo[1,5-a]pyrimidin-5-yl)pyridin-2-yl)-2,4-dihydro-3H-1,2,4-triazol-3-one], the mortality at 300 ppm in the assay with Helicoverpa armigera and in the assay with Plutella xylostella was at least 70% each time.

With `CCS(=O)(=O)c1cc(-n2nc(C(F)(F)F)cc2C)cnc1-c1ccn2nc(C(F)(F)F)cc2n1` [Compound 38, 5-(3-(ethylsulfonyl)-5-(5-methyl-3-(trifluoromethyl)-1H-pyrazol-1-yl)pyridin-2-yl)-2-(trifluoromethyl)pyrazolo[1,5-a]pyrimidine], the mortality at 300 ppm in the assay on Helicoverpa armigera, in the assay on Spodoptera litura and in the assay on Plutella xylostella was at least 70% throughout.

For `CCS(=O)(=O)c1cc(-c2ccc(OC(F)(F)F)cc2)cnc1-c1ccn2nc(C(F)(F)F)nc2n1` [Compound 100, 5-(3-(ethylsulfonyl)-5-(4-(trifluoromethoxy)phenyl)pyridin-2-yl)-2-(trifluoromethyl)-[1,2,4]triazolo[1,5-a]pyrimidine], the mortality at 300 ppm with Helicoverpa armigera, with Spodoptera litura and in the assay on Plutella xylostella was at least 70% each time.

Regarding `CCS(=O)(=O)c1cc(-c2cc(F)cc(F)c2)cnc1-c1ccn2nc(C(F)(F)F)cc2n1` [Compound 125, 5-(5-(3,5-difluorophenyl)-3-(ethylsulfonyl)pyridin-2-yl)-2-(trifluoromethyl)pyrazolo[1,5-a]pyrimidine], the mortality at 300 ppm with Spodoptera litura and with Plutella xylostella was at least 70% throughout.

For the compound `CCS(=O)(=O)c1cc(OC(F)F)cnc1-c1ccn2nc(C(F)(F)F)cc2n1` [Compound 229, 5-(5-(difluoromethoxy)-3-(ethylsulfonyl)pyridin-2-yl)-2-(trifluoromethyl)pyrazolo[1,5-a]pyrimidine], the mortality at 300 ppm in the assay on Helicoverpa armigera and in the assay on Plutella xylostella was at least 70% in each case.

On to `CCS(=O)(=O)c1cc(-c2ccn3nc(C(F)(F)F)cc3n2)cnc1-n1ccc(C(F)(F)F)n1` [Compound 37, 5-(5-(ethylsulfonyl)-6-(3-(trifluoromethyl)-1H-pyrazol-1-yl)pyridin-3-yl)-2-(trifluoromethyl)pyrazolo[1,5-a]pyrimidine], for which the mortality at 300 ppm in the assay with Spodoptera litura and with Plutella xylostella was at least 70% in each case.

With `CCS(=O)(=O)c1cc(-c2ccc(Cl)c(Cl)c2)cnc1-c1ccn2nc(C(F)(F)F)cc2n1` [Compound 155, 5-(5-(3,4-dichlorophenyl)-3-(ethylsulfonyl)pyridin-2-yl)-2-(trifluoromethyl)pyrazolo[1,5-a]pyrimidine], the mortality at 300 ppm in the assay on Helicoverpa armigera, in the assay with Spodoptera litura and in the assay with Plutella xylostella was at least 70% each time.

For the compound `CCS(=O)(=O)c1cc(-c2cc(F)cc(Cl)c2)cnc1-c1ccn2nc(C(F)(F)F)cc2n1` [Compound 111, 5-(5-(3-chloro-5-fluorophenyl)-3-(ethylsulfonyl)pyridin-2-yl)-2-(trifluoromethyl)pyrazolo[1,5-a]pyrimidine], the mortality at 300 ppm in the assay on Helicoverpa armigera, in the assay on Spodoptera litura and in the assay with Plutella xylostella was at least 70% throughout.

As to `CCS(=O)(=O)c1cc(C=CC2CC2)cnc1-c1ccn2nc(C(F)(F)F)cc2n1` [Compound 205, 5-(5-(2-cyclopropylvinyl)-3-(ethylsulfonyl)pyridin-2-yl)-2-(trifluoromethyl)pyrazolo[1,5-a]pyrimidine], the mortality at 300 ppm in the assay on Spodoptera litura and in the assay with Plutella xylostella was at least 70% each time.

As for `CCS(=O)(=O)c1ccc(-n2ccc(C(F)(F)F)n2)nc1-c1ccn2nc(C(F)(F)F)cc2n1` [Compound 34, 5-(3-(ethylsulfonyl)-6-(3-(trifluoromethyl)-1H-pyrazol-1-yl)pyridin-2-yl)-2-(trifluoromethyl)pyrazolo[1,5-a]pyrimidine], the mortality at 300 ppm in the assay on Helicoverpa armigera and with Plutella xylostella was at least 70% in each case.

As for `CCS(=O)(=O)c1cc(-c2cc(Cl)cc(Cl)c2)cnc1-c1ccn2nc(C(F)(F)F)cc2n1` [Compound 76, 5-(5-(3,5-dichlorophenyl)-3-(ethylsulfonyl)pyridin-2-yl)-2-(trifluoromethyl)pyrazolo[1,5-a]pyrimidine], the mortality at 300 ppm in the assay on Helicoverpa armigera and in the assay with Spodoptera litura was at least 70% throughout.

Consider `CCS(=O)(=O)c1cc(-c2ccc(Cl)c(F)c2)cnc1-c1ccn2nc(C(F)(F)F)cc2n1` [Compound 126, 5-(5-(4-chloro-3-fluorophenyl)-3-(ethylsulfonyl)pyridin-2-yl)-2-(trifluoromethyl)pyrazolo[1,5-a]pyrimidine], for which the mortality at 300 ppm with Helicoverpa armigera, in the assay with Spodoptera litura and in the assay on Plutella xylostella was at least 70% throughout.

Turning to `CCS(=O)(=O)c1cc(-c2ncccn2)cnc1-c1ccn2nc(C(F)(F)F)cc2n1` [Compound 231, 5-(3-(ethylsulfonyl)-5-(pyrimidin-2-yl)pyridin-2-yl)-2-(trifluoromethyl)pyrazolo[1,5-a]pyrimidine], the mortality at 300 ppm in the assay with Helicoverpa armigera, in the assay on Spodoptera litura and in the assay with Plutella xylostella was at least 70% each time.

Regarding `CCS(=O)(=O)c1cc(-c2ccc(F)c(Cl)c2)cnc1-c1ccn2nc(C(F)(F)F)cc2n1` [Compound 127, 5-(5-(3-chloro-4-fluorophenyl)-3-(ethylsulfonyl)pyridin-2-yl)-2-(trifluoromethyl)pyrazolo[1,5-a]pyrimidine], the mortality at 300 ppm with Helicoverpa armigera, with Spodoptera litura and with Plutella xylostella was at least 70% throughout.

With `CCS(=O)(=O)c1cc(-c2ccc(Cl)cc2)cnc1-c1ccn2nc(C(F)(F)F)nc2n1` [Compound 101, 5-(5-(4-chlorophenyl)-3-(ethylsulfonyl)pyridin-2-yl)-2-(trifluoromethyl)-[1,2,4]triazolo[1,5-a]pyrimidine], the mortality at 300 ppm in the assay with Spodoptera litura and with Plutella xylostella was at least 70% each time.

With `CCS(=O)(=O)c1ccc(-n2ncn(-c3cc(Cl)cc(Cl)c3)c2=O)nc1-c1ccn2nc(C(F)(F)F)cc2n1` [Compound 8, 4-(3,5-dichlorophenyl)-2-(5-(ethylsulfonyl)-6-(2-(trifluoromethyl)pyrazolo[1,5-a]pyrimidin-5-yl)pyridin-2-yl)-2,4-dihydro-3H-1,2,4-triazol-3-one], the mortality at 300 ppm in the assay on Helicoverpa armigera and in the assay with Plutella xylostella was at least 70% throughout.

As to `CCS(=O)(=O)c1cc(-c2ccc(OC(F)(F)F)cc2)cnc1-c1ccn2nc(C(F)(F)F)cc2n1` [Compound 66, 5-(3-(ethylsulfonyl)-5-(4-(trifluoromethoxy)phenyl)pyridin-2-yl)-2-(trifluoromethyl)pyrazolo[1,5-a]pyrimidine], the mortality at 300 ppm in the assay on Helicoverpa armigera, in the assay on Spodoptera litura and in the assay with Plutella xylostella was at least 70% each time.

Turning to `CCS(=O)(=O)c1cc(Br)cnc1-c1ccn2nc(C(F)(F)F)cc2n1` [Compound 29, 5-(5-bromo-3-(ethylsulfonyl)pyridin-2-yl)-2-(trifluoromethyl)pyrazolo[1,5-a]pyrimidine], the mortality at 300 ppm in the assay on Helicoverpa armigera, in the assay on Spodoptera litura and in the assay with Plutella xylostella was at least 70% in each case.

In the case of `CCS(=O)(=O)c1ccc(-c2ccc(OC(F)(F)F)cc2)nc1-c1ccn2nc(C(F)(F)F)cc2n1` [Compound 17, 5-(3-(ethylsulfonyl)-6-(4-(trifluoromethoxy)phenyl)pyridin-2-yl)-2-(trifluoromethyl)pyrazolo[1,5-a]pyrimidine], the mortality at 300 ppm in the assay with Spodoptera litura and in the assay with Plutella xylostella was at least 70% throughout.

Turning to `CCS(=O)(=O)c1cc(-c2ccn3nc(C(F)(F)F)cc3n2)cnc1-n1nc2ccc(C(F)(F)F)cn2c1=O` [Compound 75, 2-(3-(ethylsulfonyl)-5-(2-(trifluoromethyl)pyrazolo[1,5-a]pyrimidin-5-yl)pyridin-2-yl)-6-(trifluoromethyl)-[1,2,4]triazolo[4,3-a]pyridin-3(2H)-one], the mortality at 300 ppm in the assay on Helicoverpa armigera and in the assay on Plutella xylostella was at least 70% throughout.

For `CCS(=O)(=O)c1cc(-n2cc(F)cn2)cnc1-c1ccn2nc(C(F)(F)F)cc2n1` [Compound 70, 5-(3-(ethylsulfonyl)-5-(4-fluoro-1H-pyrazol-1-yl)pyridin-2-yl)-2-(trifluoromethyl)pyrazolo[1,5-a]pyrimidine], the mortality at 300 ppm with Helicoverpa armigera and in the assay on Plutella xylostella was at least 70% throughout.

Source of the values: US12514251B2, “Fused heterocyclic compounds and their use as pest control agents” (priority 2020, dated 2026).
